Results from DBAASP.
Converted amounts (≈) assume the structure as drawn. Values belong to the compound of their own block, whether it stands above or below them.

Experiments:
Assay in all cases: ≥ marks a high value that may be exact or a test limit, other limits are often not marked, values filed in µg/mL are converted to µM
[1] = tested on: Phytophthora nicotianae
[2] = tested on: Candida albicans
[3] = tested on: Pseudomonas aeruginosa ATCC 27853
[4] = tested on: Staphylococcus aureus ATCC 49476
[5] = tested on: Staphylococcus aureus MR
[6] = tested on: Escherichia coli 078
[7] = tested on: Escherichia coli ATCC 25922
[8] = tested on: Escherichia coli UB1005
[9] = tested on: Lacticaseibacillus rhamnosus 7469
[10] = tested on: Salmonella enterica subsp. enterica serovar Pullorum ATCC 7913
[11] = tested on: Salmonella enterica subsp. enterica serovar Typhimurium ATCC 14028
[12] = tested on: Salmonella enterica subsp. enterica serovar Typhimurium C77-31
[13] = tested on: Staphylococcus aureus ATCC 25923
[14] = tested on: Staphylococcus aureus ATCC 29213
[15] = tested on: Staphylococcus epidermidis ATCC 12228
[16] = tested on: Streptococcus agalactiae CICC 10465
[17] = tested on: Streptococcus agalactiae
[18] = tested on: Streptococcus thermophilus YM-C
[19] = tested on: Acinetobacter baumannii ATCC 17987
[20] = tested on: Acinetobacter baumannii AYE
[21] = tested on: Enterococcus faecalis NCTC 12201
[22] = tested on: Enterococcus faecalis NCTC 12204
[23] = tested on: Enterococcus faecalis NCTC 775
[24] = tested on: Escherichia coli NCTC 12923
[25] = tested on: Klebsiella pneumoniae M6
[26] = tested on: Klebsiella pneumoniae NCTC 13368
[27] = tested on: Pseudomonas aeruginosa NCTC 13437
[28] = tested on: Pseudomonas aeruginosa PAO1
[29] = tested on: Pseudomonas syringae pv. tomato
[30] = tested on: Staphylococcus aureus 15
[31] = tested on: Staphylococcus aureus NCTC 9144
[32] = tested on: Xanthomonas axonopodis pv. phaseoli
[33] = tested on: Acinetobacter baumannii
[34] = tested on: Klebsiella pneumoniae ATCC 700603
[35] = tested on: Klebsiella pneumoniae
[36] = tested on: Pseudomonas aeruginosa ATCC 9027
[37] = tested on: Staphylococcus aureus ATCC 29737
[38] = tested on: Candida albicans FRR 5580
[39] = tested on: Staphylococcus aureus
[40] = tested on: Escherichia coli BL21
[41] = tested on: Staphylococcus aureus USA 300
[42] = tested on: Streptococcus pyogenes M1T1 5448
[43] = tested on: Mannheimia haemolytica 82-25

MIC [1]: 12 µM (≈ 24 µg/mL)
SMILES: CC[C@H](C)[C@H](NC(=O)CN)C(=O)N[C@@H](Cc1ccccc1)C(=O)N[C@@H](CO)C(=O)N[C@@H](CCCCN)C(=O)N[C@@H](CC(C)C)C(=O)N[C@@H](C)C(=O)NCC(=O)N[C@@H](CCCCN)C(=O)N[C@@H](CCCCN)C(=O)N[C@@H](CC(C)C)C(=O)N[C@@H](CCCCN)C(=O)N[C@@H](CC(N)=O)C(=O)N[C@@H](CC(C)C)C(=O)N[C@@H](CC(C)C)C(=O)N[C@H](C(=O)N[C@@H](CO)C(=O)NCC(=O)N[C@@H](CC(C)C)C(N)=O)[C@@H](C)CC [GIFSKLAGKKLKNLLISGL]

MIC [2]: 42.7 µM (≈ 128 µg/mL) | MIC [3]: > 171 µM | MIC [4]: ≥ 171 µM | MIC [5]: ≥ 171 µM
SMILES: CC[C@H](C)[C@H](NC(=O)[C@H](CC(C)C)NC(=O)[C@H](CCCN=C(N)N)NC(=O)[C@H](Cc1cnc[nH]1)NC(=O)[C@H](CCC(=O)O)NC(=O)[C@H](C)NC(=O)[C@H](CCCCN)NC(=O)CNC(=O)[C@H](C)NC(=O)[C@H](CO)NC(=O)[C@H](Cc1ccccc1)NC(=O)[C@H](CC(C)C)NC(=O)CNC(=O)CNC(=O)[C@@H](NC(=O)[C@@H](NC(=O)[C@H](Cc1cnc[nH]1)NC(=O)[C@H](Cc1cnc[nH]1)NC(=O)[C@@H](NC(=O)[C@@H](N)Cc1ccccc1)[C@@H](C)CC)[C@@H](C)CC)[C@@H](C)CC)C(=O)N[C@@H](CCCN=C(N)N)C(=O)N[C@@H](CCCN=C(N)N)C(=O)N[C@@H](CCCN=C(N)N)C(=O)N[C@@H](CCCN=C(N)N)C(=O)N[C@@H](CCCN=C(N)N)C(=O)O [FIHHIIGGLFSAGKAEHRLIRRRRR]

MIC [6]: ≥ 64 µM | MIC [7]: > 64 µM | MIC [8]: ≥ 64 µM | MIC [9]: ≥ 64 µM | MIC [3]: > 64 µM | MIC [10]: ≥ 64 µM | MIC [11]: > 64 µM | MIC [12]: ≥ 64 µM | MIC [13]: > 64 µM | MIC [14]: > 64 µM | MIC [15]: > 64 µM | MIC [16]: ≥ 64 µM | MIC [17]: ≥ 64 µM | MIC [18]: ≥ 64 µM
SMILES: CC[C@H](C)[C@H](NC(=O)[C@H](CC(C)C)NC(=O)[C@@H](NC(=O)[C@@H](N)CC(=O)O)[C@@H](C)CC)C(=O)N[C@H](C(=O)N[C@H](C(=O)NCC(=O)NCC(N)=O)C(C)C)[C@@H](C)CC [DILIIVGG]

MIC [19]: 5.24 µM (≈ 16 µg/mL) | MIC [20]: 2.62 µM (≈ 8 µg/mL) | MIC [21]: ≥ 42 µM | MIC [22]: ≥ 42 µM | MIC [23]: ≥ 42 µM | MIC [24]: 2.62 µM (≈ 8 µg/mL) | MIC [25]: ≥ 42 µM | MIC [26]: ≥ 42 µM | MIC [27]: ≥ 42 µM | MIC [28]: > 42 µM | MIC [29]: 0.164 µM (≈ 0.5 µg/mL) | MIC [30]: ≥ 42 µM | MIC [31]: 5.24 µM (≈ 16 µg/mL) | MIC [32]: 0.164 µM (≈ 0.5 µg/mL)
SMILES: CC[C@H](C)[C@H](NC(=O)[C@H](CCC(=O)O)NC(=O)[C@H](CC(N)=O)NC(=O)[C@H](CCCCN)NC(=O)[C@H](CC(C)C)NC(=O)[C@H](CCCCN)NC(=O)[C@H](CCCCN)NC(=O)[C@H](CCCN=C(N)N)NC(=O)[C@@H](NC(=O)[C@H](CCCCN)NC(=O)[C@H](CCC(=O)O)NC(=O)[C@H](CCCCN)NC(=O)[C@H](Cc1c[nH]c2ccccc12)NC(=O)[C@H](C)N)[C@@H](C)CC)C(=O)N[C@@H](CCCCN)C(=O)N[C@@H](CCCCN)C(=O)N[C@@H](CCCCN)C(=O)NCC(=O)N[C@@H](CCCN=C(N)N)C(=O)N[C@@H](CCCCN)C(=O)N[C@@H](C)C(=O)N[C@H](C(=O)N[C@H](C(=O)N[C@@H](C)C(=O)N[C@@H](Cc1c[nH]c2ccccc12)C(=O)O)[C@@H](C)CC)C(C)C [AWKEKIRKKLKNEIKKKGRKAVIAW]

MIC [33]: 16.9 µM (≈ 31.2 µg/mL) | MIC [7]: 16.9 µM (≈ 31.2 µg/mL) | MIC [34]: 8.45 µM (≈ 15.6 µg/mL) | MIC [35]: 8.66 µM (≈ 16 µg/mL) | MIC [36]: 33.8 µM (≈ 62.5 µg/mL) | MIC [37]: 8.45 µM (≈ 15.6 µg/mL)
SMILES: CC(C)C[C@H](NC(=O)[C@H](Cc1c[nH]c2ccccc12)NC(=O)[C@@H](NC(=O)[C@H](CC(C)C)NC(=O)[C@@H]1CCCN1C(=O)[C@@H](N)Cc1ccccc1)[C@@H](C)O)C(=O)N[C@@H](CCCCN)C(=O)N[C@@H](Cc1c[nH]c2ccccc12)C(=O)N[C@@H](Cc1c[nH]c2ccccc12)C(=O)N[C@@H](CCCCN)C(=O)N[C@@H](Cc1c[nH]c2ccccc12)C(=O)N[C@@H](CCCCN)C(=O)N[C@@H](CCCCN)C(N)=O [FPLTWLKWWKWKK]

MIC [38]: 29.8 µM (≈ 64 µg/mL) | MIC [7]: 7.46 µM (≈ 16 µg/mL) | MIC [36]: 7.46 µM (≈ 16 µg/mL) | MIC [13]: 7.46 µM (≈ 16 µg/mL) | MIC [39]: 5.28 µM (≈ 11.3 µg/mL)
SMILES: NCCCC[C@H](NC(=O)[C@H](Cc1c[nH]c2ccccc12)NC(=O)[C@H](Cc1c[nH]c2ccccc12)NC(=O)[C@H](CCCCN)NC(=O)[C@H](Cc1c[nH]c2ccccc12)NC(=O)[C@H](Cc1c[nH]c2ccccc12)NC(=O)[C@H](CCCN=C(N)N)NC(=O)[C@H](Cc1c[nH]c2ccccc12)NC(=O)[C@H](Cc1c[nH]c2ccccc12)NC(=O)[C@H](CCCN=C(N)N)NC(=O)[C@H](CCCCN)NC(=O)[C@@H](N)CCCN=C(N)N)C(=O)N[C@@H](CCCN=C(N)N)C(N)=O [RKRWWRWWKWWKR]

MIC [40]: 0.5 µM (≈ 1.53 µg/mL) | MIC [28]: 16 µM (≈ 48.9 µg/mL) | MIC [41]: 16 µM (≈ 48.9 µg/mL) | MIC [42]: 1 µM (≈ 3.05 µg/mL)
SMILES: CC[C@H](C)[C@H](NC(=O)[C@H](CCCN=C(N)N)NC(=O)[C@H](CCCCN)NC(=O)[C@@H](NC(=O)[C@H](CCCCN)NC(=O)[C@H](CCCN=C(N)N)NC(=O)[C@@H](NC(=O)[C@H](Cc1ccc(O)cc1)NC(=O)[C@H](CCCN=C(N)N)NC(=O)[C@H](CCCN=C(N)N)NC(=O)[C@H](CC(C)C)NC(=O)[C@H](CCC(=O)O)NC(=O)[C@H](CCCCN)NC(=O)[C@H](C)NC(=O)[C@@H](NC(=O)[C@H](CCCN=C(N)N)NC(=O)[C@H](CC(N)=O)NC(=O)[C@@H](NC(=O)CNC(=O)[C@H](C)N)[C@@H](C)O)[C@@H](C)CC)[C@@H](C)CC)C(C)C)C(=O)N[C@@H](C)C(=O)N[C@@H](CCCN=C(N)N)C(=O)N[C@@H](CCCCN)C(=O)N[C@@H](C)C(=O)N[C@@H](Cc1c[nH]c2ccccc12)C(=O)O [AGTNRIAKELRRYIRKVKRIARKAW]

SMILES: C[C@H](N)C(=O)N[C@@H](C)C(=O)N[C@@H](CC(=O)O)C(=O)N[C@@H](CC(=O)O)C(=O)N[C@@H](CC(=O)O)C(=O)N[C@@H](CC(=O)O)C(=O)N[C@@H](CC(=O)O)C(=O)O [AADDDDD]
MIC [43]: 30 µM (≈ 22.1 µg/mL)
